The values that follow come from US11814367B2, “Inhibitors of glycogen synthase 1 (GYS1) and methods of use thereof” (Maze Therapeutics, Inc., priority 2021, dated 2023).

In experiment [1] the target is hGYS1 enzyme (recombinant hGYS1/GN1 protein) (Homo sapiens (Human), UniProt P13807). Kind of experiment: GYS1 coupled enzyme assay (PK/LDH). The class given is biochemical. The following applies: hGYS1/GN1 50 nM, UDP-Glucose 0.8 mM, G6P 1 mM; geometric mean of at least 2 runs.
The target of experiment [2] is hGYS2 enzyme (recombinant hGYS2/GN1 protein) (Homo sapiens (Human), UniProt P54840). Kind of experiment: GYS2 coupled enzyme assay (PK/LDH). The class given is biochemical. The note with it: geometric mean of at least 2 assay runs on separate days, read-out: Avg_IC50. In outline: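 Read-out: NADH loss at 340 nm, read each minute for 10 min, slope normalized to controls, duplicate % inhibition fit to Hill (0–100). Enzyme: 200 nM hGYS2/GN1; substrate 2 mM UDP-glucose plus 0.2% glycogen and 2 mM G6P; pH 7.5 Tris, 2.5% DMSO.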

Some results are limits rather than exact numbers.

Chain of hGYS1 enzyme (recombinant hGYS1/GN1 protein) (P13807 whole entry): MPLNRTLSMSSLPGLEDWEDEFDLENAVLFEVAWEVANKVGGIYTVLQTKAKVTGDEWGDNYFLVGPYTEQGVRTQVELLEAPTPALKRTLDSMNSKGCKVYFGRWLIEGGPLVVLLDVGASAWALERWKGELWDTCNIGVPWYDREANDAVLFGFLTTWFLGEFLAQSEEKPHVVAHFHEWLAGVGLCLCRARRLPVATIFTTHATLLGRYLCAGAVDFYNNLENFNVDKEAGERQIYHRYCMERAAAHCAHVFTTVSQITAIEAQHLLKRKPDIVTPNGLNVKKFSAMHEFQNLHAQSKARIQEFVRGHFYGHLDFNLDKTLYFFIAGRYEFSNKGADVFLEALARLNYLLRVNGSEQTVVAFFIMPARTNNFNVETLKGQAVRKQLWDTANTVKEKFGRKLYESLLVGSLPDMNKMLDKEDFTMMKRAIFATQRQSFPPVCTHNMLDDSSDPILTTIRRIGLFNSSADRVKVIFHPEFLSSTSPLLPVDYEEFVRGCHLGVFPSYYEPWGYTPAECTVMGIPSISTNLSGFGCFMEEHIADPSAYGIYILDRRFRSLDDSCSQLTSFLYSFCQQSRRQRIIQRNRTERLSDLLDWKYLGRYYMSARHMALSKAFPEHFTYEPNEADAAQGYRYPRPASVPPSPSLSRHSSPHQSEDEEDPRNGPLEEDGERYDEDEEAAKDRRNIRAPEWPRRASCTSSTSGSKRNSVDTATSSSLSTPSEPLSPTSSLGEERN
Chain of hGYS1 enzyme (recombinant hGYS1/GN1 protein) (P46976 whole entry partner): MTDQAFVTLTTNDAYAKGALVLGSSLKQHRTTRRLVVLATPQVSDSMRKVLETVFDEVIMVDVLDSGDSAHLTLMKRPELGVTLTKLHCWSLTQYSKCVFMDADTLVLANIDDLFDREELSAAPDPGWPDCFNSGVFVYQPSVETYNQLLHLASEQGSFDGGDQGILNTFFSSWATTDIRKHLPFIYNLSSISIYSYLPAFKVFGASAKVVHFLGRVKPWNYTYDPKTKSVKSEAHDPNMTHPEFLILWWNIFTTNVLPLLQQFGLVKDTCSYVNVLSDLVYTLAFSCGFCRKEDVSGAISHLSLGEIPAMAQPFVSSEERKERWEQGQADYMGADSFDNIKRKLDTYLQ
Chain of hGYS2 enzyme (recombinant hGYS2/GN1 protein) (P54840 whole entry): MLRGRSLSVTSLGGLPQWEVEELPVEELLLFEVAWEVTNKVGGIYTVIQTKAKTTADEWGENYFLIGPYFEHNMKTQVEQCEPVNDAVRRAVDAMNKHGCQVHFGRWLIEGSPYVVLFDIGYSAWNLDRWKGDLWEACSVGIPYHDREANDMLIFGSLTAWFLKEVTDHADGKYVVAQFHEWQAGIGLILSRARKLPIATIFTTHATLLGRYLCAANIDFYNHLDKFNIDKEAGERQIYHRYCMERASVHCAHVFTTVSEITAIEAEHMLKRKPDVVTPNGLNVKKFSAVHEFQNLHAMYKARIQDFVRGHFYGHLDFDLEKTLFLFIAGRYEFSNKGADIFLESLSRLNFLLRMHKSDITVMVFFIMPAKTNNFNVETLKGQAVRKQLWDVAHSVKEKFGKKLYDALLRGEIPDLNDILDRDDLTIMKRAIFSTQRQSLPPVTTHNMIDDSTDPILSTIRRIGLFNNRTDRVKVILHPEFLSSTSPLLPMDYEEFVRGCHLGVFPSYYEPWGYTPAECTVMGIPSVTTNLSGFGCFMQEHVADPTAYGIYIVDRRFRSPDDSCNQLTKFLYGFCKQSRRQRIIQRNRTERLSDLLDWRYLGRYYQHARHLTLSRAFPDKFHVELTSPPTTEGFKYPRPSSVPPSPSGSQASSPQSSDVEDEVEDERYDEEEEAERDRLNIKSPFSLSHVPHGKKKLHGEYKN
Chain of hGYS2 enzyme (recombinant hGYS2/GN1 protein) (P46976 whole entry partner): as the sequence (P46976 whole entry partner) above

For `CC(=O)N1CC[C@H](O)[C@H]1C(=O)N[C@@H](c1ccccc1)c1ccc(C(C)C)cc1` [Compound 206, (2S,3S)-1-acetyl-3-hydroxy-N-[(S)-phenyl[4-(propan-2-yl)phenyl]methyl]pyrrolidine-2-carboxamide], the IC50 in experiment [1] is 2480 nM; in experiment [2], more than 100000 nM.
Regarding `CC(=O)N1C[C@H](F)C[C@H]1C(=O)N[C@@H](c1ccccc1)c1ccc(C(C)C)cc1` [Compound 207, (2S,4R)-1-acetyl-4-fluoro-N-[(S)-phenyl[4-(propan-2-yl)phenyl]methyl]pyrrolidine-2-carboxamide], the figures for the IC50 in experiment [1] and in experiment [2] were 387 nM and more than 100000 nM, respectively.
Turning to `CC(=O)N[C@@H](CC(N)=O)C(=O)N1C[C@H](F)C[C@H]1C(=O)N[C@@H](c1ccccc1)c1ccc(C(C)C)cc1` [Compound 208, (2S,4R)-1-[(2S)-3-carbamoyl-2-acetamidopropanoyl]-4-fluoro-N-[(S)-phenyl[4-(propan-2-yl)phenyl]methyl]pyrrolidine-2-carboxamide], the IC50 in experiment [1] is 113 nM; in experiment [2], more than 100000 nM.
For the molecule `CC(=O)N[C@H](CC(N)=O)C(=O)N1C[C@H](F)C[C@H]1C(=O)N[C@@H](c1ccccc1)c1ccc(C(C)C)cc1` [Compound 209, (2S,4R)-1-[(2R)-3-carbamoyl-2-acetamidopropanoyl]-4-fluoro-N-[(S)-phenyl[4-(propan-2-yl)phenyl]methyl]pyrrolidine-2-carboxamide], the IC50 in experiment [1] was 91 nM; in experiment [2], more than 100000 nM.
Take `CC(C)c1ccc([C@@H](NC(=O)[C@@H]2CCCN2C(=O)CNC(=O)OC(C)(C)C)c2ccccc2)cc1` [Compound 210, tert-butyl N-{2-oxo-2-[(2S)-2-{[(S)-phenyl[4-(propan-2-yl)phenyl]methyl]carbamoyl}pyrrolidin-1-yl]ethyl}carbamate]: the IC50 in experiment [1] was 107 nM; in experiment [2] it was more than 100000 nM.
Regarding `CC(C)c1ccc([C@@H](NC(=O)[C@@H]2CCCN2C(=O)CCC(N)=O)c2ccccc2)cc1` [Compound 213, (2S)-1-(3-carbamoylpropanoyl)-N-[(S)-phenyl[4-(propan-2-yl)phenyl]methyl]pyrrolidine-2-carboxamide], the results for the IC50 in experiment [1] and in experiment [2] were 282 nM and more than 100000 nM, respectively.
On the same counts, the results for `CC(=O)N1[C@@H](C)CC[C@H]1C(=O)N[C@@H](c1ccccc1)c1ccc(C(C)C)cc1` [Compound 214, (2S,5S)-1-acetyl-5-methyl-N-[(S)-phenyl[4-(propan-2-yl)phenyl]methyl]pyrrolidine-2-carboxamide] are 853 nM and more than 100000 nM.
`CC(C)c1ccc([C@@H](NC(=O)[C@@H]2CCCN2C(=O)Cc2ncco2)c2ccccc2)cc1` [Compound 216, (2S)-1-[2-(1,3-oxazol-2-yl)acetyl]-N-[(S)-phenyl[4-(propan-2-yl)phenyl]methyl]pyrrolidine-2-carboxamide]: the IC50 in experiment [1] is 247 nM; in experiment [2], more than 100000 nM.
Take `CC(C)c1ccc([C@@H](NC(=O)[C@@H]2C[C@@H](F)CN2C(=O)CN2CCOC2=O)c2ccccc2)cc1` [Compound 217]: the figures for the IC50 in experiment [1] and in experiment [2] were 96 nM and more than 100000 nM, respectively.
As to `Cc1nnnn1CC(=O)N1C[C@H](F)C[C@H]1C(=O)N[C@@H](c1ccccc1)c1ccc(C(C)C)cc1` [Compound 226, (2RS,4R)-4-fluoro-1-[2-(5-methyl-1H-1,2,3-tetrazol-1-yl)acetyl]-N-[(S)-phenyl[4-(propan-2-yl)phenyl]methyl]pyrrolidine-2-carboxamide], the figures for the IC50 in experiment [1] and in experiment [2] were 83 nM and more than 100000 nM, respectively.
On the same counts, the results for `CC(C)c1ccc([C@@H](NC(=O)[C@@H]2C[C@@H](F)CN2C(=O)Cc2ccon2)c2ccccc2)cc1` [Compound 231, (2S,4R)-4-fluoro-1-[2-(1,2-oxazol-3-yl)acetyl]-N-[(S)-phenyl[4-(propan-2-yl)phenyl]methyl]pyrrolidine-2-carboxamide] are 105 nM and more than 100000 nM.
`Cc1n[nH]c(CC(=O)N2C[C@H](F)C[C@H]2C(=O)N[C@@H](c2ccccc2)c2ccc(C(C)C)cc2)n1` [Compound 232, (2S,4R)-4-fluoro-1-[2-(3-methyl-1H-1,2,4-triazol-5-yl)acetyl]-N-[(S)-phenyl[4-(propan-2-yl)phenyl]methyl]pyrrolidine-2-carboxamide]: the IC50 was 25 nM in experiment [1] and more than 100000 nM in experiment [2].
Regarding `CC(C)c1ccc([C@@H](NC(=O)[C@@H]2C[C@@H](F)CN2C(=O)C(C)(C)c2ncn[nH]2)c2ccccc2)cc1` [Compound 233, (2S,4R)-4-fluoro-1-[2-methyl-2-(1H-1,2,4-triazol-5-yl)propanoyl]-N-[(S)-phenyl[4-(propan-2-yl)phenyl]methyl]pyrrolidine-2-carboxamide], the IC50 was 252 nM in experiment [1] and more than 100000 nM in experiment [2].
On to `CC(C)c1ccc([C@@H](NC(=O)[C@@H]2C[C@@H](F)CN2C(=O)Cc2nnc(CNC(=O)OC(C)(C)C)o2)c2ccccc2)cc1` [Compound 237, tert-butyl N-[(5-{2-[(2S,4R)-4-fluoro-2-{[(S)-phenyl[4-(propan-2-yl)phenyl]methyl]carbamoyl}pyrrolidin-1-yl]-2-oxoethyl}-1,3,4-oxadiazol-2-yl)methyl]carbamate], for which the IC50 in experiment [1] was 54 nM; in experiment [2] it was more than 100000 nM.
In the case of `CC(C)c1ccc([C@@H](NC(=O)[C@@H]2C[C@@H](F)CN2C(=O)Cc2nnc(CN)o2)c2ccccc2)cc1` [Compound 238, (2S,4R)-1-{2-[5-(aminomethyl)-1,3,4-oxadiazol-2-yl]acetyl}-4-fluoro-N-[(S)-phenyl[4-(propan-2-yl)phenyl]methyl]pyrrolidine-2-carboxamide], the results for the IC50 in experiment [1] and in experiment [2] were 46 nM and more than 100000 nM, respectively.
As to `CC(=O)N1CCC[C@H]1C(=O)N[C@@H](c1ccccc1)c1ccc(C(C)C)cn1` [Compound 245, (2S)-1-acetyl-N-[(S)-phenyl[5-(propan-2-yl)pyridin-2-yl]methyl]pyrrolidine-2-carboxamide], the IC50 in experiment [1] was 1310 nM; in experiment [2], more than 100000 nM.
On to `CC(C)c1ccc([C@@H](NC(=O)[C@@H]2C[C@@H](F)CN2C(=O)Cn2cn[nH]c2=O)c2ccccc2)nc1` [Compound 288, (2S,4R)-4-fluoro-1-[2-(5-oxo-4,5-dihydro-1H-1,2,4-triazol-4-yl)acetyl]-N-[(S)-phenyl[5-(propan-2-yl)pyridin-2-yl]methyl]pyrrolidine-2-carboxamide], for which the IC50 was 109 nM in experiment [1] and more than 100000 nM in experiment [2].
`CC(C)c1ccc([C@@H](NC(=O)[C@@H]2C[C@@H](F)CN2C(=O)CCn2nc3ccccn3c2=O)c2ccccc2)nc1` [Compound 289, (2S,4R)-4-fluoro-1-(3-{3-oxo-2H,3H-[1,2,4]triazolo[4,3-a]pyridin-2-yl}propanoyl)-N-[(S)-phenyl[5-(propan-2-yl)pyridin-2-yl]methyl]pyrrolidine-2-carboxamide]: the IC50 was 56 nM in experiment [1] and more than 100000 nM in experiment [2].
With `CC(C)c1ccc([C@@H](NC(=O)[C@@H]2C[C@@H](F)CN2C(=O)CNC(=O)N2CC(F)(F)C2)c2ccccc2)nc1` [Compound 290, (2S,4R)-1-{2-[(3,3-difluoroazetidine-1-carbonyl]amino]acetyl}-4-fluoro-N-[(S)-phenyl[5-(propan-2-yl)pyridin-2-yl]methyl]pyrrolidine-2-carboxamide], the IC50 was 56 nM in experiment [1] and more than 100000 nM in experiment [2].
As to `CC(C)c1ccc([C@@H](NC(=O)[C@@H]2C[C@@H](F)CN2C(=O)CNC(=O)N2CC(C(F)(F)F)C2)c2ccccc2)nc1` [Compound 291, (2S,4R)-4-fluoro-N-[(S)-phenyl[5-(propan-2-yl)pyridin-2-yl]methyl]-1-(2-{[3-(trifluoromethyl)azetidin-1-carbonyl]amino}acetyl) pyrrolidine-2-carboxamide], the IC50 is 53 nM in experiment [1] and more than 100000 nM in experiment [2].
As to `CC(C)c1ccc([C@@H](NC(=O)[C@@H]2C[C@@H](F)CN2C(=O)Cn2cccn2)c2ccccc2)nc1` [Compound 292, (2S,4R)-4-fluoro-N-[(S)-phenyl[5-(propan-2-yl)pyridin-2-yl]methyl]-1-[2-(1H-pyrazol-1-yl)acetyl]pyrrolidine-2-carboxamide], the figures for the IC50 in experiment [1] and in experiment [2] were 111 nM and more than 100000 nM, respectively.
In the case of `CC(C)c1ccc([C@@H](NC(=O)[C@@H]2C[C@@H]3C[C@@H]3N2C(=O)Cc2cnn[nH]2)c2ccccc2)cc1F` [Compound 324, (1S,3S,5S)-N-[(S)-[3-fluoro-4-(propan-2-yl)phenyl](phenyl)methyl]-2-[2-(1H-1,2,3-triazol-5-yl)acetyl]-2-azabicyclo[3.1.0]hexane-3-carboxamide], the IC50 in experiment [1] is 142 nM; in experiment [2], more than 100000 nM.
Regarding `CC(C)c1ccc([C@@H](NC(=O)[C@@H]2[C@H]3C[C@H]3CN2C(=O)Cc2cnn[nH]2)c2ccccc2)cc1F` [Compound 325, (1S,2S,5R)-N-[(S)-[3-fluoro-4-(propan-2-yl)phenyl](phenyl)methyl]-3-[2-(1H-1,2,3-triazol-5-yl)acetyl]-3-azabicyclo[3.1.0]hexane-2-carboxamide], the IC50 in experiment [1] is 75 nM; in experiment [2], more than 100000 nM.
Consider `CC(C)c1ccc([C@@H](NC(=O)[C@@H]2C[C@@H](F)CN2C(=O)Cc2nnn[nH]2)c2ccccc2)cc1F` [Compound 328, (2S,4R)-4-fluoro-N-[(S)-[3-fluoro-4-(propan-2-yl)phenyl](phenyl)methyl]-1-[2-(1H-1,2,3,4-tetrazol-5-yl)acetyl]pyrrolidine-2-carboxamide], for which the IC50 in experiment [1] is 16 nM; in experiment [2], more than 100000 nM.
As to `CC(C)c1ccc([C@@H](NC(=O)[C@@H]2C[C@@H](F)CN2C(=O)Cn2ccnn2)c2ccccc2)cc1F` [Compound 331, (2S,4R)-4-fluoro-N-[(S)-[3-fluoro-4-(propan-2-yl)phenyl](phenyl)methyl]-1-[2-(1H-1,2,3-triazol-1-yl)acetyl]pyrrolidine-2-carboxamide], the IC50 in experiment [1] is 23 nM; in experiment [2] it was more than 100000 nM.
